From the Kinase Knowledgebase extract (Sharma et al. 2016)

Each compound was assayed against EGFR (human) (UniProt P00533). Settings: a431.
Sequence of EGFR (human) (P00533 whole entry, looked up): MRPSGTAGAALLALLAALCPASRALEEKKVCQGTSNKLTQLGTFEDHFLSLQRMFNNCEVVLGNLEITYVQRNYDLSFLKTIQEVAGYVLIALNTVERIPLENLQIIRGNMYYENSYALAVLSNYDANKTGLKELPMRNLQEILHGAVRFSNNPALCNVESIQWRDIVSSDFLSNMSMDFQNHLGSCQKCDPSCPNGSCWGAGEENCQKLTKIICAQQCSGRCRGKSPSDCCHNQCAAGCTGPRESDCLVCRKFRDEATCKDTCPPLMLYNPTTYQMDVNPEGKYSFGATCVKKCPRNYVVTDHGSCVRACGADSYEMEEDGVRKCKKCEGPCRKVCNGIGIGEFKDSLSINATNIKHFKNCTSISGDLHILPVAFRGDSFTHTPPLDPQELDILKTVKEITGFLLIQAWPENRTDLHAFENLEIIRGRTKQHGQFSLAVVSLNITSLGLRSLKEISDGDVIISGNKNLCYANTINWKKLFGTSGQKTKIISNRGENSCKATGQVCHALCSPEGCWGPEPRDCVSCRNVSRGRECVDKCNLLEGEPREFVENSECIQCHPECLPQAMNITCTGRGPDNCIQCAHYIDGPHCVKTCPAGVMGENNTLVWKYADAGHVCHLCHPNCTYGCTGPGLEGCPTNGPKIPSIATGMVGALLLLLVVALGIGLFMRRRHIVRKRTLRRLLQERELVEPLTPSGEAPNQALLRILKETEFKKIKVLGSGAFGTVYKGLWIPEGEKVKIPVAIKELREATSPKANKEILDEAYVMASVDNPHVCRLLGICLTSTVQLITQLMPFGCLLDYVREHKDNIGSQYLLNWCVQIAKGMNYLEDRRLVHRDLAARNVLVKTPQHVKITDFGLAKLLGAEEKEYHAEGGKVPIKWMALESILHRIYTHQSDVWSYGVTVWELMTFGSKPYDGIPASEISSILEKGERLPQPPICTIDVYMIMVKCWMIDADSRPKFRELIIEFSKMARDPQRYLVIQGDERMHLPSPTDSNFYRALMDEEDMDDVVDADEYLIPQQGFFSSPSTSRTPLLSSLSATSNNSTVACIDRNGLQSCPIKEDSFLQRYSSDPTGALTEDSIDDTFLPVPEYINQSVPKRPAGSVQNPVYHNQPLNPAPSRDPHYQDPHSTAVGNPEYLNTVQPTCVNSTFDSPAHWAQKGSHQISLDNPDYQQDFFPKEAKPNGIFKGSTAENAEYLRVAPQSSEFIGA

Structure (SMILES)	IC50
C/C(=C\c1coc2nc(N)nc(N)c12)c1ccc(Cl)cc1Cl	> 50 µM
C/C(=C\c1coc2nc(N)nc(N)c12)c1cc(Cl)ccc1Cl	> 50 µM
C/C(=C\c1coc2nc(N)nc(N)c12)c1cccc(Cl)c1	> 50 µM
C/C(=C/c1coc2nc(N)nc(N)c12)c1ccc(Cl)c(Cl)c1Cl.C/C(=C\c1coc2nc(N)nc(N)c12)c1ccc(Cl)c(Cl)c1Cl	> 50 µM
C/C(=C/c1coc2nc(N)nc(N)c12)c1ccc(-c2ccccc2)cc1.C/C(=C\c1coc2nc(N)nc(N)c12)c1ccc(-c2ccccc2)cc1	> 50 µM
COc1cc(/C(C)=C/c2coc3nc(N)nc(N)c23)cc(OC)c1OC.COc1cc(/C(C)=C\c2coc3nc(N)nc(N)c23)cc(OC)c1OC	> 50 µM
C/C(=C\c1coc2nc(N)nc(N)c12)c1ccc2c(c1)Cc1ccccc1-2	> 50 µM
C/C(=C\c1coc2nc(N)nc(N)c12)c1ccc(Cl)c(Cl)c1Cl	> 50 µM
C/C(=C/c1coc2nc(N)nc(N)c12)c1ccc(Cl)c(Cl)c1.C/C(=C\c1coc2nc(N)nc(N)c12)c1ccc(Cl)c(Cl)c1	> 50 µM
COc1ccc(OC)c(/C(C)=C/c2coc3nc(N)nc(N)c23)c1	> 50 µM
C/C(=C/c1coc2nc(N)nc(N)c12)c1ccc2ccccc2c1.C/C(=C\c1coc2nc(N)nc(N)c12)c1ccc2ccccc2c1	> 50 µM
C/C(=C/c1coc2nc(N)nc(N)c12)c1ccc(Cl)cc1.C/C(=C\c1coc2nc(N)nc(N)c12)c1ccc(Cl)cc1	> 50 µM
C/C(=C/c1coc2nc(N)nc(N)c12)c1cc(Cl)ccc1Cl	> 50 µM
COc1ccccc1/C(C)=C/c1coc2nc(N)nc(N)c12	> 50 µM
